Measured values from patent US12312333B2, “SK channel positive allosteric modulators” (Chapman University, priority 2021, dated 2025).
“Also recorded” adds a separate entry of the source.

Test system: Purkinje cells in acute cerebellar slices from SCA2-58Q mouse
Assay: Cerebellar slice loose-patch recordings of spontaneous PC activity in SCA2-58Q mice
Assay type: cell-based
Settings: 10 μM; for effect on PC firing pattern: bursting SCA2-58Q PC; for Average firing frequency (FF) after exposure: 10-s fragment of one PC recording, before application 2o 157.2 Hz, 2q 134.3 Hz
Procedure: The ISI distribution before and after 2o application, obtained from 10-s fragments of the recording was also analyzed (FIG. 9C). […] The ISI distribution before and after 2q application, obtained from 10-s fragments of the recording was also analyzed (FIG. 10A).
Transgenic SCA2-58Q mice and their wild type (WT) littermates were used in these experiments. SCA2-58Q mice were kindly provided to us by Dr. Stefan Pulst (University of Utah) and were crossed to the FVB background strain. Hemizygous male SCA2-58Q mice were crossed with the WT female mice to generate mixed litters. The genotyping was done via PCR for ATXN2 transgene. The volume of one PCR sample was 25 μl. The PCR mix per one sample contained: 2.5 μl 10× buffer for Taq polymerase, 0.5 μl 10 mM dNTP, 1.5 μl 25 mM MgCl2, 0.125 μl 20 μM primers (forward and reverse), 0.25 μl Taq polymerase, 2 μl DNA, and 18 μl dH2O. For forward and reverse primer sequences, see e.g., Egorova et al., Cell Calcium, 2021 January; 93: 102319. The PCR product has 232 bp. Mice were housed in groups of two to six in one cage in the vivarium. The temperature was kept 22-24° C. including 12 daylight hours. […] All procedures were approved by the Bioethics Committee of the Peter the Great St. Petersburg Polytechnic University at St. Petersburg, Russia, and followed the principles of the European convention (Strasbourg, 1986) and the Declaration of International medical association about humane treatment of animals (Helsinki, 1996).
Recordings of spontaneous PC activity from WT and SCA2-58Q mice at 7-8 months of age were performed. Briefly, the mice were anesthetized with 2,000 mg/kg urethane and transcardially perfused with ice-cold aCSF containing 85 mM NaCl, 24 mM NaHCO3, 25 mM glucose, 2.5 mM KCl, 0.5 mM CaCl2, 4 mM MgCl2, 1 mM NaH2PO4, and 75 mM sucrose. Solutions were equilibrated with carbogen (95% O2/5% CO2). Next, the cerebellum was dissected and 300 μm thick sagittal slices were cut with a VT1200S vibratome (Leica). […] The external bath solution used for the recording was the same as the recovery aCSF, but also contained 100 μM picrotoxin (PTX) and 10 μM 6,7-dinitroquinoxaline-2,3-dione (DNQX), equilibrated with carbogen. All recordings were made within 5-6 hours after cerebellum was dissected. The recording chamber was heated to 35° C. using TC-324C automatic temperature controller (Warner Instruments). Loose-patch recordings were made to evaluate the spontaneous activity of cerebellar PCs. Briefly, 1-3 MΩ glass pipettes were filled with the internal solution containing 140 mM NaCl buffered with 10 mM HEPES pH 7.3 and held at 0 mV. A loose patch (<100 MΩ) configuration was established at the PC soma at the axon hillock area. Spontaneous action potential currents were recorded for 5-60 min from each cell using Axon Multiclamp 700B amplifier (Molecular Devices). The 10 min recordings were analyzed for tonic or burst firing. Cells were characterized as firing tonically if they fired repetitive nonhalting spike trains for 10 min. A cell was characterized as bursting if it had more than 5% of the interspike intervals that fell outside of 3 SD from the mean of all interspike intervals in that cell. The analysis of PC firing was performed using Clampfit 10.2 (Molecular Devices). Data was plotted as the instantaneous firing rate every 100 ms for the entire recording duration.

Compound	effect on PC firing frequency	effect on regularity of PC activity	effect on PC firing pattern	Average firing frequency (FF) after exposure	time after application until cell activity switched to the silent mode
Cc1cc(Nc2ccc(F)c(Cl)c2)nc(-n2nc(C)cc2C)n1 [Compound 2o, N-(3-Chloro-4-fluorophenyl)-2-(3,5-dimethyl-1H-pyrazol-1-yl)-6-methyl-pyrimidin-4-amine]	significantly decreased the firing frequency of the cell	improved the regularity of PC activity	converted bursting SCA2-58Q PC to tonic firing pattern; also recorded: normalize abnormal firing of Purkinje cells; also recorded: converts bursting patterns into tonic activity of PC	84.6 Hz	
Cc1cc(Nc2cc(Cl)ccc2F)nc(-n2nc(C)cc2C)n1 [Compound 2q, N-(5-Chloro-2-fluorophenyl)-2-(3,5-dimethyl-1H-pyrazol-1-yl)-6-methylpyrimidin-4-amine]	significantly decreased the firing frequency of the cell	improved the regularity of PC activity	converted bursting SCA2-58Q PC to tonic firing pattern; also recorded: normalize abnormal firing of Purkinje cells; also recorded: converts bursting patterns into tonic activity of PC and then into a silent mode	55.9 Hz	8 min
